According to US20160058752A1, “TOPICAL […]-AFFECTIVE (TPNA) THERAPY FOR N[…]” (AFGIN PHARMA, LLC, priority 2014, published 2016):

How the values were obtained:
[1] = after topical application in cold cream; cited from earlier work
[2] = test system: dopamine, norepinephrine, and serotonin receptors; conditions: topical
free nerve endings = experiment: Onset of clinical effect of TPNA therapy; assay type: in vivo, human; conditions: topical
[3] = test system: local peripheral and generalized pain; experiment: Nuchal (BONATH) application of compounded opioids for pain relief in patients; conditions: patients tapering off oral narcotics, nuchal delivery as only pain therapy
From the text: Previously described has is the “nuchal” (back of the neck at the hairline, or “BONATH”) application of triptans (Migraderm using sumatriptan) for migraine headache, tizanidine (Tizoderm) for cervical spasm and tension headache; and, apomorphine for the Parkinson's disease symptoms of tremor, rigidity, speech difficulties, and other “non-motor” symptoms.

Compound | effect on symptoms of neuropathic pain and other symptoms of nerve dysfunction [2] | narcotic withdrawal symptoms [3] | other results
CN1CC[C@]23c4c5ccc(O)c4O[C@H]2[C@@H](O)C=C[C@H]3[C@H]1C5 [morphine] |  |  | morphine levels in blood or urine [1]: not detected
NCCc1ccc(O)c(O)c1 [dopamine] | treat symptoms of neuropathic pain |  | 
CN1CCc2cccc3c2[C@H]1Cc1ccc(O)c(O)c1-3 [apomorphine] | treat symptoms of neuropathic pain |  | onset of clinical effect (free nerve endings): 10 to 15 min
COc1cccc(C2(O)CCCCC2CN(C)C)c1 (stereo not drawn) [tramadol] |  | no significant narcotic withdrawal symptoms | 
CN1CC[C@]23c4c5ccc(O)c4O[C@H]2[C@@H](O)C=C[C@H]3[C@H]1C5.O=S(=O)(O)O [morphine sulfate] |  | no significant narcotic withdrawal symptoms | 
